According to US20210238176A1, “PESTICIDALLY-ACTIVE BICYCLIC HETEROAROMATIC COMPOUNDS” (SYNGENTA CROP PROTECTION AG, priority 2018, published 2021):

Columns and labels:
Type in all cases: in vivo
[1] = test system: Myzus persicae (Green Peach Aphid); experiment: Myzus persicae (green peach aphid) feeding/contact activity, sunflower leaf discs; conditions: foliar, 144 h, application rate 200 ppm, aphid population of mixed ages, 6 days after infestation
Description: Myzus persicae (Green Peach Aphid): Feeding/Contact Activity
Sunflower leaf discs were placed onto agar in a 24-well microtiter plate and sprayed with aqueous test solutions prepared from 10,000 ppm DMSO stock solutions. After drying, the leaf discs were infested with an aphid population of mixed ages. The samples were assessed for mortality 6 days after infestation.

[2] = test system: Myzus persicae (Green Peach Aphid); experiment: Myzus persicae intrinsic activity, sucrose solution under Parafilm; conditions: 120 h, test rate 12 ppm, 5 days after infestation
Excerpt: Myzus persicae (Green Peach Aphid). Intrinsic Activity
Test compounds prepared from 10,000 ppm DMSO stock solutions were applied by pipette into 24-well microtiter plates and mixed with sucrose solution. The plates were closed with a stretched Parafilm. A plastic stencil with 24 holes was placed onto the plate and infested pea seedlings were placed directly on the Parafilm. The infested plate was closed with a gel blotting paper and another plastic stencil and then turned upside down. The samples were assessed for mortality 5 days after infestation.

[3] = test system: Myzus persicae (Green Peach Aphid); experiment: Myzus persicae systemic activity, pea seedling roots in test solution; conditions: 144 h, test rate 24 ppm, systemic via pea seedling roots, 6 days
Description: Myzus persicae (Green Peach Aphid). Systemic Activity
Roots of pea seedlings infested with an aphid population of mixed ages were placed directly into aqueous test solutions prepared from 10,000 ppm DMSO stock solutions. The samples were assessed for mortality 6 days after placing seedlings into test solutions.

SMILES	mortality at 200 ppm [1] [%]	mortality at 12 ppm [2] [%]	mortality at 24 ppm [3] [%]
O=c1nc2n(Cc3ccc(Cl)nc3)cccc-2n1-c1cccc(-c2ccccc2)c1 [Compound A1, 4-[(6-chloro-3-pyridyl)methyl]-1-(3-phenylphenyl)imidazo[4,5-b]pyridin-2-one]	≥ 80	≥ 80	
O=c1nc2n(Cc3ccc(Cl)nc3)cccc-2n1-c1cnn(-c2ccccc2)c1 [Compound A5, 4-[(6-chloro-3-pyridyl)methyl]-1-(1-phenylpyrazol-4-yl)imidazo[4,5-b]pyridin-2-one]	≥ 80	≥ 80	
O=c1nc2n(Cc3ccc(Cl)nc3)cccc-2n1-c1cccc(Cl)c1 [Compound A6, 1-(3-chlorophenyl)-4-[(6-chloro-3-pyridyl)methyl]imidazo[4,5-b]pyridin-2-one]	≥ 80	≥ 80	
COc1cccc(-n2c3cccn(Cc4ccc(Cl)nc4)c-3nc2=O)c1 [Compound A7, 4-[(6-chloro-3-pyridyl)methyl]-1-(3-methoxyphenyl)imidazo[4,5-b]pyridin-2-one]	≥ 80	≥ 80	
COc1ccc(-n2c3cccn(Cc4ccc(Cl)nc4)c-3nc2=O)cc1 [Compound A8, 4-[(6-chloro-3-pyridyl)methyl]-1-(4-methoxyphenyl)imidazo[4,5-b]pyridin-2-one]	≥ 80	≥ 80	
O=c1nc2n(Cc3ccc(Cl)nc3)cccc-2n1-c1ccc(Cl)cc1 [Compound A9, 1-(4-chlorophenyl)-4-[(6-chloro-3-pyridyl)methyl]imidazo[4,5-b]pyridin-2-one]	≥ 80	≥ 80	
N#Cc1ccc(-n2c3cccn(Cc4ccc(Cl)nc4)c-3nc2=O)cc1 [Compound A10, 4-[4-[(6-chloro-3-pyridyl)methyl]-2-oxo-imidazo[4,5-b]pyridin-1-yl]benzonitrile]	≥ 80	≥ 80	
N#Cc1cccc(-n2c3cccn(Cc4ccc(Cl)nc4)c-3nc2=O)c1 [Compound A11, 3-[4-[(6-chloro-3-pyridyl)methyl]-2-oxo-imidazo[4,5-b]pyridin-1-yl]benzonitrile]	≥ 80	≥ 80	
O=c1nc2n(Cc3ccc(Cl)nc3)cccc-2n1-c1ccnc(C(F)(F)F)c1 [Compound A14, 4-[(6-chloro-3-pyridyl)methyl]-1-[2-(trifluoromethyl)-4-pyridyl]imidazo[4,5-b]pyridin-2-one]	≥ 80	≥ 80	
O=c1nc2n(Cc3ccc(Cl)nc3)cccc-2n1-c1cncnc1 [Compound A16, 4-[(6-chloro-3-pyridyl)methyl]-1-pyrimidin-5-yl-imidazo[4,5-b]pyridin-2-one]		≥ 80	≥ 80
O=c1nc2n(Cc3ccc(Cl)nc3)cccc-2n1-c1cc(C(F)F)ccn1 [Compound A19, 4-[(6-chloro-3-pyridyl)methyl]-1-[4-(difluoromethyl)-2-pyridyl]imidazo[4,5-b]pyridin-2-one]		≥ 80	
O=c1nc2n(Cc3ccc(Cl)nc3)cccc-2n1-c1cccc(C(F)(F)F)c1 [Compound A21, 4-[(6-chloro-3-pyridyl)methyl]-1-[3-(trifluoromethyl)phenyl]imidazo[4,5-b]pyridin-2-one]	≥ 80	≥ 80	
O=c1nc2n(Cc3ccc(Cl)nc3)cccc-2n1-c1cncc(Cl)c1 [Compound A22, 1-(5-chloro-3-pyridyl)-4-[(6-chloro-3-pyridyl)methyl]imidazo[4,5-b]pyridin-2-one]		≥ 80	≥ 80
O=c1nc2n(Cc3ccc(Cl)nc3)cccc-2n1-c1ncccn1 [Compound A23, 4-[(6-chloro-3-pyridyl)methyl]-1-pyrimidin-2-yl-imidazo[4,5-b]pyridin-2-one]	≥ 80		
O=c1nc2n(Cc3ccc(Cl)nc3)cccc-2n1-c1ccc(C(F)(F)F)nc1 [Compound A24, 4-[(6-chloro-3-pyridyl)methyl]-1-[6-(trifluoromethyl)-3-pyridyl]imidazo[4,5-b]pyridin-2-one]		≥ 80	≥ 80
O=c1nc2n(Cc3ccc(Cl)nc3)cccc-2n1-c1cncc(C(F)(F)F)c1 [Compound A25, 4-[(6-chloro-3-pyridyl)methyl]-1-[5-(trifluoromethyl)-3-pyridyl]imidazo[4,5-b]pyridin-2-one]	≥ 80	≥ 80	≥ 80
O=c1nc2n(Cc3ccc(Cl)nc3)cccc-2n1-c1ccccn1 [Compound A27, 4-[(6-chloro-3-pyridyl)methyl]-1-(2-pyridyl)imidazo[4,5-b]pyridin-2-one]		≥ 80	≥ 80

SMILES	mortality at 200 ppm [1] [%]	mortality at 12 ppm [2] [%]	mortality at 24 ppm [3] [%]
Cc1cccc(-n2c3cccn(Cc4ccc(Cl)nc4)c-3nc2=O)c1 [Compound A29, 4-[(6-chloro-3-pyridyl)methyl]-1-(m-tolyl)imidazo[4,5-b]pyridin-2-one]	≥ 80	≥ 80	
O=c1nc2n(Cc3ccc(Cl)nc3)cccc-2n1-c1ccc(F)cc1 [Compound A32, 4-[(6-chloro-3-pyridyl)methyl]-1-(4-fluorophenyl)imidazo[4,5-b]pyridin-2-one]	≥ 80	≥ 80	≥ 80
O=c1nc2n(Cc3cnc(Cl)s3)cccc-2n1-c1ccccc1 [Compound A36, 4-[(2-chlorothiazol-5-yl)methyl]-1-phenyl-imidazo[4,5-b]pyridin-2-one]	≥ 80	≥ 80	
O=c1nc2n(Cc3ccc(Cl)nc3)cccc-2n1-c1ccccc1Cl [Compound A38, 1-(2-chlorophenyl)-4-[(6-chloro-3-pyridyl)methyl]imidazo[4,5-b]pyridin-2-one]	≥ 80	≥ 80	
O=c1nc2n(Cc3ccc(Cl)nc3)cccc-2n1-c1ccc(Cl)cc1Cl [Compound A41, 4-[(6-chloro-3-pyridyl)methyl]-1-(2,4-dichlorophenyl)imidazo[4,5-b]pyridin-2-one]		≥ 80	
O=c1nc2n(Cc3ccc(Cl)nc3)cccc-2n1-c1nccnc1C(F)(F)F [Compound A42, 4-[(6-chloro-3-pyridyl)methyl]-1-[3-(trifluoromethyl)pyrazin-2-yl]imidazo[4,5-b]pyridin-2-one]	≥ 80	≥ 80	
O=c1nc2n(Cc3ccc(Cl)nc3)cccc-2n1-c1ccsc1 [Compound A47, 4-[(6-chloro-3-pyridyl)methyl]-1-(3-thienyl)imidazo[4,5-b]pyridin-2-one]		≥ 80	
Cc1ccc(C)c(-n2c3cccn(Cc4ccc(Cl)nc4)c-3nc2=O)c1 [Compound A51, 4-[(6-chloro-3-pyridyl)methyl]-1-(2,5-dimethylphenyl)imidazo[4,5-b]pyridin-2-one]		≥ 80	
Cc1ccc(-n2c3cccn(Cc4ccc(Cl)nc4)c-3nc2=O)s1 [Compound A67, 4-[(6-chloro-3-pyridyl)methyl]-1-(5-methyl-2-thienyl)imidazo[4,5-b]pyridin-2-one]	≥ 80	≥ 80	
O=c1nc2n(Cc3ccc(Cl)nc3)cccc-2n1-c1csc(C(F)F)c1 [Compound A68, 4-[(6-chloro-3-pyridyl)methyl]-1-[5-(difluoromethyl)-3-thienyl]imidazo[4,5-b]pyridin-2-one]		≥ 80	
O=c1nc2n(Cc3ccc(Cl)nc3)cccc-2n1-c1csc(C(F)(F)F)c1 [Compound A71, 4-[(6-chloro-3-pyridyl)methyl]-1-[5-(trifluoromethyl)-3-thienyl]imidazo[4,5-b]pyridin-2-one]		≥ 80	
O=c1nc2n(Cc3ccc(Cl)nc3)cccc-2n1-c1cc(F)cs1 [Compound A73, 4-[(6-chloro-3-pyridyl)methyl]-1-(4-fluoro-2-thienyl)imidazo[4,5-b]pyridin-2-one]		≥ 80	
COC(=O)c1ccc(-n2c3cccn(Cc4ccc(Cl)nc4)c-3nc2=O)o1 [Compound A77, methyl 5-[4-[(6-chloro-3-pyridyl)methyl]-2-oxo-imidazo[4,5-b]pyridin-1-yl]furan-2-carboxylate]		≥ 80	
O=c1nc2n(Cc3ccc(Cl)nc3)cccc-2n1-c1nnc(C2CC2)o1 [Compound A79, 4-[(6-chloro-3-pyridyl)methyl]-1-(5-cyclopropyl-1,3,4-oxadiazol-2-yl)imidazo[4,5-b]pyridin-2-one]	≥ 80	≥ 80	
O=c1nc2n(Cc3ccc(Cl)nc3)cccc-2n1-c1ccccc1C(F)(F)F [Compound A81, 4-[(6-chloro-3-pyridyl)methyl]-1-[2-(trifluoromethyl)phenyl]imidazo[4,5-b]pyridin-2-one]	≥ 80	≥ 80	
O=c1nc2n(Cc3ccc(Cl)nc3)cccc-2n1-c1cnn(C2COC2)c1 [Compound A87, 4-[(6-chloro-3-pyridyl)methyl]-1-[1-(oxetan-3-yl)pyrazol-4-yl]imidazo[4,5-b]pyridin-2-one]	≥ 80		
CCn1nccc1-n1c2cccn(Cc3ccc(Cl)nc3)c-2nc1=O [Compound A89, 4-[(6-chloro-3-pyridyl)methyl]-1-(2-ethylpyrazol-3-yl)imidazo[4,5-b]pyridin-2-one]		≥ 80	
